Laboratory results published in ChEMBL document CHEMBL2346639, “A new dehydroabietic acid-based arylamine fluorescent probe: Synthesis, structure analysis and in vitro biodiagnose function” (Bioorg Med Chem Lett, 2013).

Columns and labels:
HeLa = assay: Cellular uptake in human HeLa cells after 4 hrs by fluorescence microscopic analysis; format: ADME, cell-based
[1] = Cytotoxicity against human A549 cells assessed as cell survival at 1 uM after 24 hrs by MTT assay relative to control; format: cell-based; conditions: read-out: Survival
[2] = Cytotoxicity against human SGC7901 cells assessed as cell survival at 1 uM after 24 hrs by MTT assay relative to control; format: cell-based; conditions: SGC-7901 cells, read-out: Survival
[3] = Cellular uptake in human SMMC7721 cells cytoplasm after 4 hrs by fluorescence microscopic analysis; format: ADME, cell-based; conditions: smmc-7721, 4 h
A549 [4] = assay: Cellular uptake in human A549 cells after 4 hrs by fluorescence microscopic analysis; format: ADME, cell-based; conditions: a549, 4 h
A549 [5] = assay: Cytotoxicity against human A549 cells assessed as effect on cell survival at 5 to 25 uM after 24 hrs by MTT assay; format: cell-based; conditions: a549, 24 h
[6] = Photostability of the compound in DMSO at 1 x 10^-6 M measured after UV-irradiation by fluorescence spectra analysis; format: physicochemical; conditions: 1 µM
[7] = Cellular uptake in human HeLa cells cytoplasm after 4 hrs by fluorescence microscopic analysis; format: ADME, cell-based
[8] = Solubility of the compound in water; format: physicochemical
[9] = Cellular uptake in human A549 cells cytoplasm after 4 hrs by fluorescence microscopic analysis; format: ADME, cell-based; conditions: a549, 4 h
SGC-7901 = assay: Cellular uptake in human SGC7901 cells after 4 hrs by fluorescence microscopic analysis; format: ADME, cell-based; conditions: sgc-7901, 4 h
[10] = Cytotoxicity against human HeLa cells assessed as cell survival at 1 uM after 24 hrs by MTT assay relative to control; format: cell-based; conditions: read-out: Survival
[11] = Cellular uptake in human SGC7901 cells cytoplasm after 4 hrs by fluorescence microscopic analysis; format: ADME, cell-based; conditions: sgc-7901, 4 h
SMMC-7721 = assay: Cellular uptake in human SMMC7721 cells after 4 hrs by fluorescence microscopic analysis; format: ADME, cell-based; conditions: smmc-7721, 4 h
[12] = Cytotoxicity against human SMMC7721 cells assessed as cell survival at 1 uM after 24 hrs by MTT assay relative to control; format: cell-based; conditions: SMMC-7721 cells, read-out: Survival
[13] = Photostability of the compound in water at 1 x 10^-6 M measured after UV-irradiation by fluorescence spectra analysis; format: physicochemical; conditions: buffer, 1 µM
[14] = Photostability of the compound in methanol at 1 x 10^-6 M measured after UV-irradiation by fluorescence spectra analysis; format: physicochemical; conditions: 1 µM
[15] = Photostability of the compound in dichloromethane at 1 x 10^-6 M measured after UV-irradiation by fluorescence spectra analysis; format: physicochemical; conditions: 1 µM
[16] = Photostability of the compound in water at 10 uM measured 30 mins after UV-irradiation by fluorescence spectra analysis; format: physicochemical; conditions: buffer, 0.5 h

For COC(=O)[C@]1(C)CCC[C@]2(C)c3ccc(Nc4cccc5ccccc45)cc3CC[C@@H]12, the Drug uptake (HeLa) was “Active”, the viability at 24 h, 1 µM [1] was 93.1% and the viability at 24 h, 1 µM [2] was 94.5%. For the same compound, the Drug uptake [3] was “Active”, the Drug uptake (A549 [4]) was “Active” and the Activity (A549 [5]) was “Non-toxic”. For the same compound, the Stability [6] was “Unstable”, the Drug uptake [7] was “Active” and the solubility [8] was greater than 15 µM. For the same compound, the Drug uptake [9] was “Active”, the Drug uptake (SGC-7901) was “Active” and the viability at 24 h, 1 µM [10] was 97.3%. For the same compound, the Drug uptake [11] was “Active”, the Drug uptake (SMMC-7721) was “Active” and the viability at 24 h, 1 µM [12] was 96%. For the same compound, the Stability [13] was “Stable”, the Stability [14] was “Unstable” and the Stability [15] was “Unstable”. For the same compound, the Stability [16] was “Stable”.
